Values after ≈ are worked out from the molar mass of the structure shown.
Key:
Type in all cases: cell-based
Prot. rettgeri M 1771 = assay: in vitro antibacterial activity, microtitration dilution (MIC), Prot. rettgeri M 1771; details: Providencia rettgeri, M1771, read-out: minimum inhibiting concentration (MIC)
Text: (§1) The in vitro antibacterial activity, is obtained by the microtitration dilution method as described in Heifetz, et al., Antimicr. Agents & Chemother., 6, 124 (1974), which is incorporated herein by reference.
(§2) By use of the above methods, the following minimum inhibiting concentration values (MICs in μg/mL), PD50 's in mg/kg, no effect phototoxicity dose in mg/kg and the cytotoxicity IC50 in μg/mL were obtained for representative enantiomers of the invention and compounds of the prior art as shown in the table.

Pseud. aeruginosa UI-18 = assay: in vitro antibacterial activity, microtitration dilution (MIC), Pseud. aeruginosa UI-18; details: Pseudomonas aeruginosa, UI18, read-out: minimum inhibiting concentration (MIC)
Text: as §1, §2

Strep. faecalis MGH-2 = assay: in vitro antibacterial activity, microtitration dilution (MIC), Strep. faecalis MGH-2; details: Enterococcus faecalis, MGH2, read-out: minimum inhibiting concentration (MIC)
Text: as §1, §2

Staph. aureus H 228 = assay: in vitro antibacterial activity, microtitration dilution (MIC), Staph. aureus H 228; details: Staphylococcus aureus, H228, read-out: minimum inhibiting concentration (MIC)
Text: as §1, §2

Staph. aureus UC-76 = assay: in vitro antibacterial activity, microtitration dilution (MIC), Staph. aureus UC-76; details: Staphylococcus aureus, UC76, read-out: minimum inhibiting concentration (MIC)
Text: as §1, §2

Ent. cloacae MA2646 = assay: in vitro antibacterial activity, microtitration dilution (MIC), Ent. cloacae MA2646; details: Enterobacter cloacae, read-out: minimum inhibiting concentration (MIC)
Text: as §1, §2

Klebs. pneumoniae MGH-2 = assay: in vitro antibacterial activity, microtitration dilution (MIC), Klebs. pneumoniae MGH-2; details: Klebsiella pneumoniae, MGH2, read-out: minimum inhibiting concentration (MIC)
Text: as §1, §2

Strep. pheumoniae SV-1 = assay: in vitro antibacterial activity, microtitration dilution (MIC), Strep. pneumoniae SV-1; details: Streptococcus pneumoniae, SV1, read-out: minimum inhibiting concentration (MIC)
Text: as §1, §2

Strep. pyogenes C-203 = assay: in vitro antibacterial activity, microtitration dilution (MIC), Strep. pyogenes C-203; details: Streptococcus pyogenes, C203, read-out: minimum inhibiting concentration (MIC)
Text: as §1, §2

Esch. coli Vogel = assay: in vitro antibacterial activity, microtitration dilution (MIC), Esch. coli Vogel; details: Escherichia coli, read-out: minimum inhibiting concentration (MIC)
Text: as §1, §2

SMILES | MIC (Prot. rettgeri M 1771) [µg/mL] | MIC (Pseud. aeruginosa UI-18) [µg/mL] | MIC (Strep. faecalis MGH-2) [µg/mL] | MIC (Staph. aureus H 228) [µg/mL] | MIC (Staph. aureus UC-76) [µg/mL] | MIC (Ent. cloacae MA2646) [µg/mL] | MIC (Klebs. pneumoniae MGH-2) [µg/mL] | MIC (Strep. pheumoniae SV-1) [µg/mL] | MIC (Strep. pyogenes C-203) [µg/mL] | MIC (Esch. coli Vogel) [µg/mL]
CN[C@@H](C)[C@@H]1CCN(c2c(F)c(C)c3c(=O)c(C(=O)O)cn(C4CC4)c3c2OC)C1 [Example 61, 3R,1S-1-cyclopropyl-6-fluoro-7-[3-(1-N-methylaminoethyl)-1-pyrrolidinyl]-5-methyl-8-methoxy-1,4-dihydro-4-oxo-3-quinolinecarboxylic acid] | 0.4 (≈ 0.958 µM) | 1.6 (≈ 3.83 µM) | 0.025 (≈ 0.0599 µM) | 0.006 (≈ 0.0144 µM) | ≤ 0.003 | 0.1 (≈ 0.24 µM) | 0.2 (≈ 0.479 µM) | ≤ 0.003 | ≤ 0.003 | 0.1 (≈ 0.24 µM)
CCN[C@@H](C)[C@@H]1CCN(c2cc3c(c(C)c2F)c(=O)c(C(=O)O)cn3-c2ccc(F)cc2F)C1 [Example 54, 3R,1S-7-[3-(1-N-ethylaminoethyl)-1-pyrrolidinyl]-1-(2,4-difluorophenyl)-6-fluoro-1,4-dihydro-5-methyl-4-oxo-3-quinolinecarboxylic acid] | 1.6 (≈ 3.38 µM) | 3.1 (≈ 6.55 µM) | 0.1 (≈ 0.211 µM) | 0.025 (≈ 0.0528 µM) | 0.013 (≈ 0.0275 µM) | 0.4 (≈ 0.845 µM) | 0.8 (≈ 1.69 µM) | 0.013 (≈ 0.0275 µM) | 0.013 (≈ 0.0275 µM) | 0.4 (≈ 0.845 µM)
Cc1c(F)c(N2CC[C@@H]([C@H](C)N)C2)cc2c1c(=O)c(C(=O)O)cn2C1CC1 [Example 47, 3R,1S-7-[3-(1-aminoethyl)-1-pyrrolidinyl]-1-cyclopropyl-6-fluoro-1,4-dihydro-5-methyl-4-oxo-3-quinolinecarboxylic acid] | 0.2 (≈ 0.536 µM) | 0.8 (≈ 2.14 µM) | 0.025 (≈ 0.0669 µM) | 0.025 (≈ 0.0669 µM) | 0.003 (≈ 0.00803 µM) | 0.1 (≈ 0.268 µM) | 0.1 (≈ 0.268 µM) | 0.003 (≈ 0.00803 µM) | 0.003 (≈ 0.00803 µM) | 0.1 (≈ 0.268 µM)
CN[C@H](C)[C@H]1CCN(c2nc3c(cc2F)c(=O)c(C(=O)O)cn3C2CC2)C1 [Example 23, 3S,1R-1-cyclopropyl-6-fluoro-7-[3-(1-N-methylaminoethyl)-1-pyrrolidinyl]-1,4-dihydro-4-oxo-1,8-naphthyridine-3-carboxylic acid] | 0.8 (≈ 2.14 µM) | 1.6 (≈ 4.27 µM) | 0.2 (≈ 0.534 µM) | 0.2 (≈ 0.534 µM) | 0.05 (≈ 0.134 µM) | 0.1 (≈ 0.267 µM) | 0.2 (≈ 0.534 µM) | 0.1 (≈ 0.267 µM) | 0.1 (≈ 0.267 µM) | 0.1 (≈ 0.267 µM)
CCN[C@H](C)[C@H]1CCN(c2c(F)cc3c(=O)c(C(=O)O)cn(C4CC4)c3c2OC)C1 [Example 19, 3S,1R-1-cyclopropyl-6-fluoro-7-[3-(1-N-ethylaminoethyl)1-pyrrolidinyl]-8-methoxy-1,4-dihydro-4-oxo-3-quinolinecarboxylic acid] | 1.6 (≈ 3.83 µM) | 6.3 (≈ 15.1 µM) | 0.1 (≈ 0.24 µM) | 0.1 (≈ 0.24 µM) | 0.05 (≈ 0.12 µM) | 0.4 (≈ 0.958 µM) | 0.8 (≈ 1.92 µM) | 0.013 (≈ 0.0311 µM) | 0.025 (≈ 0.0599 µM) | 0.4 (≈ 0.958 µM)
CCN[C@@H](C)[C@@H]1CCN(c2cc3c(c(C)c2F)c(=O)c(C(=O)O)cn3C2CC2)C1 [Example 52, 3R,1S-1-cyclopropyl-7-[3-(1-N-ethylaminoethyl)-1-pyrrolidinyl]-6-fluoro-1,4-dihydro-5-methyl-4-oxo-3-quinolinecarboxylic acid] | 1.6 (≈ 3.99 µM) | 3.1 (≈ 7.72 µM) | 0.05 (≈ 0.125 µM) | 0.05 (≈ 0.125 µM) | 0.013 (≈ 0.0324 µM) | 0.4 (≈ 0.996 µM) | 0.4 (≈ 0.996 µM) | 0.05 (≈ 0.125 µM) | 0.05 (≈ 0.125 µM) | 0.4 (≈ 0.996 µM)
Cc1c(F)c(N2CC[C@@H]([C@@H](C)N)C2)cc2c1c(=O)c(C(=O)O)cn2-c1ccc(F)cc1F [Example 46, 3R,1R-7-[3-(1-aminoethyl)-1-pyrrolidinyl]-1-(2,4-difluorophenyl)-6-fluoro-1,4-dihydro-5-methyl-4-oxo-3-quinolinecarboxylic acid] | 0.4 (≈ 0.898 µM) | 1.6 (≈ 3.59 µM) | 0.1 (≈ 0.224 µM) | 0.025 (≈ 0.0561 µM) | 0.013 (≈ 0.0292 µM) | 0.2 (≈ 0.449 µM) | 0.4 (≈ 0.898 µM) | 0.013 (≈ 0.0292 µM) | 0.013 (≈ 0.0292 µM) | 0.2 (≈ 0.449 µM)
CN[C@H](C)[C@@H]1CCN(c2cc3c(c(C)c2F)c(=O)c(C(=O)O)cn3-c2ccc(F)cc2F)C1 [Example 63] | 0.8 (≈ 1.74 µM) | 3.1 (≈ 6.75 µM) | 0.2 (≈ 0.435 µM) | 0.1 (≈ 0.218 µM) | 0.05 (≈ 0.109 µM) | 0.4 (≈ 0.871 µM) | 0.4 (≈ 0.871 µM) | 0.2 (≈ 0.435 µM) | 0.2 (≈ 0.435 µM) | 0.4 (≈ 0.871 µM)

From patent publication US5563155A, “Individual stereosiomers of 7-[3-(aminoalkyl)-1-pyrrolidinyl]-quinolones and naphthyridones as antibacterial agents” (Warner-Lambert Company, priority 1995, dated 1996)
